According to paper PMC8185074, “Anchor extension: a structure-guided approach to design cyclic peptides targeting enzyme active sites” (Nature Communications, 2021):
pIC50: −log10 of the molar value. Peptide text beside a SMILES is read from it.

Legend:
Type in all cases: biochemical
HDAC2 = molecular target: T1, HDAC2 (Homo sapiens, UniProt Q92769); experiment: HDAC2 inhibition, full IC50 measurement (Reaction Biology; fluorogenic p53 peptide RHKK(Ac)AMC)
T1 construct: purchased Reaction Biology Corporation (assay run by the CRO)
T1 sequence (Q92769 whole entry): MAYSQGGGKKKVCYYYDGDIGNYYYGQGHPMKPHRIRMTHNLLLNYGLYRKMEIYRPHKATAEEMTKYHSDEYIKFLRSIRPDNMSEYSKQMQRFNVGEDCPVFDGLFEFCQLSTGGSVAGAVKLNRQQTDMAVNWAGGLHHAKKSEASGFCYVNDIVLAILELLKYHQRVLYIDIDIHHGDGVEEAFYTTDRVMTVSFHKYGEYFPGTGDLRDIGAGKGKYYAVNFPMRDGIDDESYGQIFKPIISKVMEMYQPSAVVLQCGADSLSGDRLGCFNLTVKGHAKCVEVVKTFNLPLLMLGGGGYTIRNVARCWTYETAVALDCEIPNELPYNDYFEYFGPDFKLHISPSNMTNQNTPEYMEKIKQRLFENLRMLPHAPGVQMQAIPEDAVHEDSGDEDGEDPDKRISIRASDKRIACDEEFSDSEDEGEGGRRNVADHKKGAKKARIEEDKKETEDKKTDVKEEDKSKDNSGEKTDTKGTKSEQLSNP
Procedure, shortened: (§1)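 Reaction: enzyme plus acoustically dispensed peptide inhibitor, 50 μM RHKK(Ac)AMC substrate, pH 8.0 Tris buffer with BSA and 1% DMSO, 1 h, 30 °C. Duplicates averaged.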

HDAC1 = molecular target: T2, HDAC1 (Homo sapiens, UniProt Q13547); experiment: HDAC1 inhibition, full IC50 measurement (Reaction Biology; fluorogenic p53 peptide RHKK(Ac)AMC); conditions: t1/t2 replicates
T2 construct: purchased Reaction Biology Corporation (assay run by the CRO)
T2 sequence (Q13547 whole entry): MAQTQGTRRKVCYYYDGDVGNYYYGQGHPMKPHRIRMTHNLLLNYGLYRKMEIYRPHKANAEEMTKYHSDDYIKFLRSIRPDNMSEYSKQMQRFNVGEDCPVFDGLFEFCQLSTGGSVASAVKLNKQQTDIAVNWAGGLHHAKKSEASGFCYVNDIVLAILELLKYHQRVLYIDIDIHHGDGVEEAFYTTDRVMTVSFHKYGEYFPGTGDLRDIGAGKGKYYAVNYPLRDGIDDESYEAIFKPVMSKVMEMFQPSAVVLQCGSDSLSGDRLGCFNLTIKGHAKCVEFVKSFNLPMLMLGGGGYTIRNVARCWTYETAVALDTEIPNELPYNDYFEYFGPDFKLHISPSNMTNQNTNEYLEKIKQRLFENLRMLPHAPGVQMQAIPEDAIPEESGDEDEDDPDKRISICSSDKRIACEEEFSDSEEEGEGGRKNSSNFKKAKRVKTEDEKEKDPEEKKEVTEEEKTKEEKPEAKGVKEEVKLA
Procedure, shortened: as §1

HDAC8 = molecular target: T3, HDAC8 (Homo sapiens, UniProt Q9BY41); experiment: HDAC8 inhibition, full IC50 measurement (Reaction Biology; fluorogenic p53 peptide RHKK(Ac)AMC); conditions: t1/t2 replicates
T3 construct: purchased Reaction Biology Corporation (assay run by the CRO)
T3 sequence (Q9BY41 1-377): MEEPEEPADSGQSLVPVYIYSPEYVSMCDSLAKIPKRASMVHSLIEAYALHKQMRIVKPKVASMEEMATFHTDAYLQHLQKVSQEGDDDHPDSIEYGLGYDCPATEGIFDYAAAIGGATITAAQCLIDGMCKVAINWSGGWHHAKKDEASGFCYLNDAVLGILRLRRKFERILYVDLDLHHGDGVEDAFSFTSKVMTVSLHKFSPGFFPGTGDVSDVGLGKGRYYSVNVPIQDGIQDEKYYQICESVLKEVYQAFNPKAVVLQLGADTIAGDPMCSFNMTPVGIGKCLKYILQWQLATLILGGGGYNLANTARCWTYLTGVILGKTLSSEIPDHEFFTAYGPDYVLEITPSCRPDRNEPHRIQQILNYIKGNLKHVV
Procedure, shortened: as §1

[1] = peptide conc. 1.00E-05 M, listed as des4.3.1_t1
[2] = peptide conc. 1.00E-05 M, listed as des4.3.1_t2
[3] = peptide conc. 1.11E-06 M, listed as des4.3.1_t1
[4] = peptide conc. 1.11E-06 M, listed as des4.3.1_t2
[5] = peptide conc. 1.23E-07 M, listed as des4.3.1_t1
[6] = peptide conc. 1.23E-07 M, listed as des4.3.1_t2
[7] = peptide conc. 1.37E-08 M, listed as des4.3.1_t1
[8] = peptide conc. 1.37E-08 M, listed as des4.3.1_t2
[9] = peptide conc. 1.52E-09 M, listed as des4.3.1_t1
[10] = peptide conc. 1.52E-09 M, listed as des4.3.1_t2
[11] = peptide conc. 3.33E-06 M, listed as des4.3.1_t1
[12] = peptide conc. 3.33E-06 M, listed as des4.3.1_t2
[13] = peptide conc. 3.70E-07 M, listed as des4.3.1_t1
[14] = peptide conc. 3.70E-07 M, listed as des4.3.1_t2
[15] = peptide conc. 4.12E-08 M, listed as des4.3.1_t1
[16] = peptide conc. 4.12E-08 M, listed as des4.3.1_t2
[17] = peptide conc. 4.57E-09 M, listed as des4.3.1_t1
[18] = peptide conc. 4.57E-09 M, listed as des4.3.1_t2
[19] = peptide conc. 5.08E-10 M, listed as des4.3.1_t1
[20] = peptide conc. 5.08E-10 M, listed as des4.3.1_t2

Structure (SMILES): CCCC[C@H]1NC(=O)[C@H](Cc2ccccc2)NC(=O)[C@H](CCCCCS)NC(=O)[C@@H](CCCNC(=N)N)NC(=O)[C@H](CC(=O)O)NC(=O)[C@@H](CO)NC(=O)[C@@H](C)NC(=O)[C@H](CCCCN)NC1=O [des4.3.1, SHA-Phe-dNle-Lys-dAla-dSer-Asp-dArg] (HELM PEPTIDE1{D.[dR].[O=C([C@H](CCCCCS)N[*:1])[*:2]].F.[CCCC[C@@H](N[*:1])C(=O)[*:2]].K.[dA].[dS]}$PEPTIDE1,PEPTIDE1,1:R1-8:R2$$$V2.0)
- HDAC2 activity raw data (signal) (HDAC2; Conc. 1.00E-05 M, t1): 97979
- HDAC2 activity raw data (signal) (HDAC2; Conc. 1.00E-05 M, t2): 118920
- HDAC2 activity raw data (signal) (HDAC2; Conc. 1.11E-06 M, t1): 710265
- HDAC2 activity raw data (signal) (HDAC2; Conc. 1.11E-06 M, t2): 678505
- HDAC2 activity raw data (signal) (HDAC2; Conc. 1.23E-07 M, t1): 1050894
- HDAC2 activity raw data (signal) (HDAC2; Conc. 1.23E-07 M, t2): 1073616
- HDAC2 activity raw data (signal) (HDAC2; Conc. 1.37E-08 M, t1): 1089277
- HDAC2 activity raw data (signal) (HDAC2; Conc. 1.37E-08 M, t2): 1188700
- HDAC2 activity raw data (signal) (HDAC2; Conc. 1.52E-09 M, t1): 1283576
- HDAC2 activity raw data (signal) (HDAC2; Conc. 1.52E-09 M, t2): 1146756
- HDAC2 activity raw data (signal) (HDAC2; Conc. 3.33E-06 M, t1): 321418
- HDAC2 activity raw data (signal) (HDAC2; Conc. 3.33E-06 M, t2): 369190
- HDAC2 activity raw data (signal) (HDAC2; Conc. 3.70E-07 M, t1): 905304
- HDAC2 activity raw data (signal) (HDAC2; Conc. 3.70E-07 M, t2): 972905
- HDAC2 activity raw data (signal) (HDAC2; Conc. 4.12E-08 M, t1): 1002980
- HDAC2 activity raw data (signal) (HDAC2; Conc. 4.12E-08 M, t2): 1204296
- HDAC2 activity raw data (signal) (HDAC2; Conc. 4.57E-09 M, t1): 1158146
- HDAC2 activity raw data (signal) (HDAC2; Conc. 4.57E-09 M, t2): 1127910
- HDAC2 activity raw data (signal) (HDAC2; Conc. 5.08E-10 M, t1): 1185807
- HDAC2 activity raw data (signal) (HDAC2; Conc. 5.08E-10 M, t2): 1137899
- pIC50 (HDAC2; unit printed only in the axis title, read-out: HDAC2 IC50 (printed in dose-response picture)): 5.82
- HDAC1 activity raw data (signal) (HDAC1; [1]): 61312
- HDAC1 activity raw data (signal) (HDAC1; [2]): 56616
- HDAC1 activity raw data (signal) (HDAC1; [3]): 524367
- HDAC1 activity raw data (signal) (HDAC1; [4]): 474109
- HDAC1 activity raw data (signal) (HDAC1; [5]): 1051662
- HDAC1 activity raw data (signal) (HDAC1; [6]): 1036587
- HDAC1 activity raw data (signal) (HDAC1; [7]): 1215949
- HDAC1 activity raw data (signal) (HDAC1; [8]): 1295956
- HDAC1 activity raw data (signal) (HDAC1; [9]): 1351214
- HDAC1 activity raw data (signal) (HDAC1; [10]): 1240672
- HDAC1 activity raw data (signal) (HDAC1; [11]): 212161
- HDAC1 activity raw data (signal) (HDAC1; [12]): 198550
- HDAC1 activity raw data (signal) (HDAC1; [13]): 878996
- HDAC1 activity raw data (signal) (HDAC1; [14]): 808933
- HDAC1 activity raw data (signal) (HDAC1; [15]): 1147207
- HDAC1 activity raw data (signal) (HDAC1; [16]): 1235202
- HDAC1 activity raw data (signal) (HDAC1; [17]): 1224928
- HDAC1 activity raw data (signal) (HDAC1; [18]): 1148569
- HDAC1 activity raw data (signal) (HDAC1; [19]): 1219331
- HDAC1 activity raw data (signal) (HDAC1; [20]): 1171745
- HDAC8 activity raw data (signal) (HDAC8; [1]): -1078311
- HDAC8 activity raw data (signal) (HDAC8; [2]): -204031
- HDAC8 activity raw data (signal) (HDAC8; [3]): 952629
- HDAC8 activity raw data (signal) (HDAC8; [4]): 3749954
- HDAC8 activity raw data (signal) (HDAC8; [5]): 24845816
- HDAC8 activity raw data (signal) (HDAC8; [6]): 32510062
- HDAC8 activity raw data (signal) (HDAC8; [7]): 71732810
- HDAC8 activity raw data (signal) (HDAC8; [8]): 73842492
- HDAC8 activity raw data (signal) (HDAC8; [9]): 70954745
- HDAC8 activity raw data (signal) (HDAC8; [10]): 80270259
- HDAC8 activity raw data (signal) (HDAC8; [11]): 928811
- HDAC8 activity raw data (signal) (HDAC8; [12]): 1732618
- HDAC8 activity raw data (signal) (HDAC8; [13]): 8410528
- HDAC8 activity raw data (signal) (HDAC8; [14]): 10886213
- HDAC8 activity raw data (signal) (HDAC8; [15]): 59468141
- HDAC8 activity raw data (signal) (HDAC8; [16]): 56999449
- HDAC8 activity raw data (signal) (HDAC8; [17]): 79326596
- HDAC8 activity raw data (signal) (HDAC8; [18]): 78170432
- HDAC8 activity raw data (signal) (HDAC8; [19]): 81559751
- HDAC8 activity raw data (signal) (HDAC8; [20]): 84202880
